27 compounds from US8273743B2, “Quinoxaline inhibitors of the hedgehog signalling” (Curis, Inc., priority 2004, dated 2012) can be followed below.

Some results are limits rather than exact numbers.

The assay deals with hedgehog pathway signaling (10T1/2-GliLuc [s12] or HEPM-GliLuc [MZ24] Gli reporter cell lines). The assay can be described thus: Hedgehog signalling inhibition assay (Gli-luciferase reporter gene assay). The assay is classed as cell-based. The following applies: average IC50; either mouse [s12] or human [MZ24] Gli reporter cell lines; with Sonic hedgehog-octyl conjugate, 24 hrs. The procedure: Mouse Reporter Cell lines—10T1/2-GliLuc [s12] cells (derived from cell line C3H10T1/2 ATCC #CCL-226); Mouse Embryonic Fibroblasts); Growth Medium: Dulbecco's modified Eagles' Medium (DMEM) supplemented with 10% Fetal Bovine Serum (FBS), 10 units/mL penicillin, 100 ug/mL streptomycin, 2 mM glutamine, and 10 mM HEPES.
Human Reporter Cell lines—HEPM-GliLuc [MZ24]—cells (derived from HEPM, Human Embryonic Palatal Mesenchyme ATCC #CRL-1486); Growth Medium: Minimum Essential Medium (MEM; with Earle's salts) supplemented with 10-20% Fetal Bovine Serium (FBS), 10 units/mL penicillin, 100 ug/mL streptomycin, 2 mM glutamine, and 10 mM HEPES pH 7.2.
Sonic hedgehog—recombinant human SHh N-terminal octylated conjugate.
Microtiter Plates (MTPs)—For the Luciferase assay cells are plated in 96-well MTPs (White, Flat-bottom, Clear-View).
Luciferase-Assay Medium—DMEM supplemented with 0.5% FBS, 10 units/mL penicillin, 100 ug/mL streptomycin, 2 mM glutamine, and 10 mM HEPES pH 7.2.
PBS/Ca/Mg Mix—Phosphate Buffered Saline (PBS) supplemented with 0.5 mM CaCl2 and 1 mM MgCl2.
S12 and MZ24 cells genetically modified to contain a luciferase reporter gene driven by the hedgehog-responsive Gli promoter were maintained on tissue culture dishes in Growth Medium at 37° C. and 5% CO2. Cell cultures were passaged at sub-confluency at every 3-4 days. (1:20 to 1:40 for s12; 1:3 to 1:10 for MZ24). Cells were harvested and diluted in Growth Medium such that they could be plated in a microtitre plate at 10,000-20,000 cells (s12), or 20,000-30,000 cells (MZ24), per 100 ul, per well. Cells were further incubated for ˜24-48 hours at 37° C. and 5% CO2.
After ˜24-48 hour incubation the Growth Medium in the microtitre plates was replaced by Luciferase-Assay Medium (100 ul per well), with and without Sonic hedgehog-octyl conjugate, at 0.1-0.3 ug/ml (S12) or 0.5-1.0 ug/ml (MZ24), and test compounds. Cells were then further incubated for and additional 24 hrs.
Microtitre plates were then subjected to the luciferase reporter gene assay kit (LucLite™), with modifications to the manufacturer's procedure wherein medium was removed and the substrate was reconstituted with 1:1 PBS/Ca/Mg:lysis buffer instead of straight lysis buffer. In brief, the PBS/Ca/Mg was mixed 1:1 with lysis buffer and 10 mL were added to each substrate vial (of the 1000-assay kit). Then the assay media from the microtitre plate was discarded, and 100 ul of this substrate mix was added to each well. Plates were incubated at room temperature for 20-30 minutes and then the Relative Light Units (RLUS) representing the relative expression level of the luciferase reporter gene were determined with a Topcount reader (Packard) or an Analyst reader (Molecular Devices).
The following table 1 represents the average IC50 values for particular compounds tested according to the procedures above using either mouse [s12] or human [MZ24] Gli reporter cell lines indicating inhibition of hedgehog pathway signaling.
Background: In a reporter assay the amount or activity of a reporter protein is the signal.

The IC50 is the concentration needed to halve the response being measured. A low value points to inhibition by little substance. Compound `O=C(Nc1ccc(Cl)c(-c2cnc3ccccc3n2)c1)c1cccnc1F` [compound 6] yielded a half-inhibitory concentration (IC50) of less than 1000 nM.

Compound `Cc1ccsc1C(=O)Nc1ccc(Cl)c(-c2cnc3ccccc3n2)c1` [compound 7] returned an IC50 of less than 1000 nM.

`O=C(Nc1ccc(Cl)c(-c2cnc3ccccc3n2)c1)c1ccc(Cl)nc1Cl` [compound 15] returned a half-inhibitory concentration (IC50) of less than 1000 nM.

Turning to `CS(=O)(=O)c1ccc(C(=O)Nc2ccc(Cl)c(-c3cnc4ccccc4n3)c2)cc1` [compound 18], the IC50 was less than 1000 nM.

The compound `O=C(Nc1ccc(Cl)c(-c2cnc3ccccc3n2)c1)c1ccc2cc[nH]c2c1` [compound 19] registered an IC50 of less than 1000 nM.

Consider `CS(=O)(=O)c1cccc(C(=O)Nc2ccc(Cl)c(-c3cnc4ccccc4n3)c2)c1` [compound 24], for which the IC50 is less than 1000 nM.

As to `O=C(Nc1ccc(Cl)c(-c2cnc3ccccc3n2)c1)C1CC1` [compound 27], the IC50 was less than 1000 nM.

Take `Cc1cc(C(=O)Nc2ccc(Cl)c(-c3cnc4ccccc4n3)c2)c(C(F)(F)F)o1` [compound 31]: the IC50 was less than 1000 nM.

Take `O=C(Nc1ccc(Cl)c(-c2cnc3ccccc3n2)c1)c1cccc(Cl)c1` [compound 33]: the IC50 is less than 1000 nM.

Consider `O=C(Nc1ccc(Cl)c(-c2cnc3ccccc3n2)c1)c1ccc(Cl)cc1` [compound 34], for which the IC50 is less than 1000 nM.

`O=C(Nc1ccc(Cl)c(-c2cnc3ccccc3n2)c1)c1cccnc1` [compound 35]: the IC50 was less than 1000 nM.

On to `O=C(Nc1ccc(Cl)c(-c2cnc3ccccc3n2)c1)c1ccc(Cl)nc1` [compound 36], for which the IC50 was less than 1000 nM.

The compound `O=C(Nc1ccc(Cl)c(-c2cnc3ccccc3n2)c1)c1cccnc1Cl` [compound 37] registered an IC50 of less than 1000 nM.

The compound `O=C(Nc1ccc(Cl)c(-c2cnc3ccccc3n2)c1)c1cccs1` [compound 38] came in with an IC50 of less than 1000 nM.

As for `Cc1nc(C(F)(F)F)ccc1C(=O)Nc1ccc(Cl)c(-c2cnc3c(F)cc(F)cc3n2)c1` [compound 39], the IC50 was less than 1000 nM.

On to `Cc1nc(C(F)(F)F)ccc1C(=O)Nc1ccc(Cl)c(-c2cnc3c(F)c(F)ccc3n2)c1` [compound 40], for which the IC50 is less than 1000 nM.

Compound `Cc1nc(C(F)(F)F)ccc1C(=O)Nc1ccc(Cl)c(-c2cnc3cc(F)c(F)cc3n2)c1` [compound 41] came in with an IC50 of less than 1000 nM.

The compound `Cc1cc2ncc(-c3cc(NC(=O)c4ccc(C(F)(F)F)nc4C)ccc3Cl)nc2cc1C` [compound 42] showed an IC50 of less than 1000 nM.

`Cc1nc(C(F)(F)F)ccc1C(=O)Nc1ccc(Cl)c(-c2cnc3cc(F)ccc3n2)c1` [compound 43] had an IC50 of less than 1000 nM.

For `O=C(Nc1ccc(Cl)c(-c2cnc3ccccc3n2)c1)c1cccc2c1OCCO2` [compound 44], the half-inhibitory concentration (IC50) was less than 1000 nM.

Consider `Cc1ccc2ncc(-c3cc(NC(=O)c4ccc(C(F)(F)F)nc4C)ccc3Cl)nc2c1C` [compound 45], for which the IC50 was less than 1000 nM.

Compound `COc1cc(OC)cc(C(=O)Nc2ccc(Cl)c(-c3cnc4c(C)cccc4n3)c2)c1` [compound 46] yielded an IC50 of less than 1000 nM.

With `Cc1nc(C(F)(F)F)ccc1C(=O)Nc1ccc(Cl)c(-c2cnc3c(C)cccc3n2)c1` [compound 47], the IC50 is less than 1000 nM.

In the case of `Cc1cc(C)c2nc(-c3cc(NC(=O)c4ccc(C(F)(F)F)nc4C)ccc3Cl)cnc2c1` [compound 48], the IC50 was less than 1000 nM.

As for `COc1cc(OC)cc(C(=O)Nc2ccc(Cl)c(-c3cnc4ccc(C)c(C)c4n3)c2)c1` [compound 54], the IC50 was less than 1000 nM.

`Cc1nc(C(F)(F)F)ccc1C(=O)Nc1ccc(Cl)c(-c2cnc3cccnc3n2)c1` [compound 55] had an IC50 of less than 1000 nM.

For `CC(C)CC(=O)Nc1ccc(Cl)c(-c2cnc3ccccc3n2)c1` [compound 56], the IC50 is less than 1000 nM.
